The results in this text go back to ChEMBL document CHEMBL1131078, “Small molecular probes for G-protein-coupled C5a receptors: conformationally constrained antagonists derived from the C terminus of the human plasma protein C5a” (J Med Chem, 1998).

As usually defined, the IC50 is the point on the concentration scale where inhibition reaches its midpoint. Low values mean higher potency, high ones lower potency.

The species entered for one assay is Homo sapiens. The assay can be described thus: Agonist activity at dose range 0.1 nM to 1 mM in human PMNs; No agonistic activity. It is filed as functional.
Assay [1] has as its target T1, C5a anaphylatoxin chemotactic receptor 1 (Homo sapiens, UniProt P21730).
T1 sequence (P21730 whole entry): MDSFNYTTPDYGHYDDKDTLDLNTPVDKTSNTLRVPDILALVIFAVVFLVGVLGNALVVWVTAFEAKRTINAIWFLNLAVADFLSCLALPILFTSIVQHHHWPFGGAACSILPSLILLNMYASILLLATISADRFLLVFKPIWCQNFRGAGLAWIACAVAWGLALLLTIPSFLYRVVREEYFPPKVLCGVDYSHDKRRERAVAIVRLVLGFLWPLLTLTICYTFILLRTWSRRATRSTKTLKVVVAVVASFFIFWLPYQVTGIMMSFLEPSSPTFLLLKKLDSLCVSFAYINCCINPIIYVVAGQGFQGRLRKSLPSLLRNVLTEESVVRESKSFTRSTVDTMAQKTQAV
The assay can be described thus: 50% reduction in binding of [125I]C5a to human polymorphonuclear cells (PMNs). It is filed as cell-based, PMN.

In assay [2] the target is T1, C5a anaphylatoxin chemotactic receptor 1. In words: 50% reduction in myeloperoxidase secretion from human PMNs mediated by 100 nM C5a.

Activity calls are given as the source filed them. The rule behind the calls is not given here. Where a SMILES comes first, the peptide text is derived from it.

On to `CN[C@@H](Cc1ccccc1)C(=O)N[C@@H](CCCCN)C(=O)N1CCC[C@H]1C(=O)N[C@@H](CC1CCCCC1)C(=O)N[C@@H](Cc1c[nH]c2ccccc12)C(=O)N[C@@H](CCCN=C(N)N)C(=O)O`, for which the Agonistic activity result in the assay filed under Homo sapiens was “inactive”.
`CC[C@H](C)[C@H](N)C(=O)N[C@@H](CO)C(=O)N[C@@H](Cc1cnc[nH]1)C(=O)N[C@@H](CCCCN)C(=O)N[C@@H](CC(=O)O)C(=O)N[C@@H](CCSC)C(=O)N[C@@H](CCC(N)=O)C(=O)N[C@@H](CC(C)C)C(=O)NCC(=O)N[C@@H](CCCNC(=N)N)C(=O)O` (H-ISHKDMQLGR-OH): the IC50 in assay [1] is above 1 mM.
`CN[C@@H](Cc1ccccc1)C(=O)N[C@@H](CCCCN)C(=O)N1CCC[C@H]1C(=O)N[C@H](CC1CCCCC1)C(=O)N[C@@H](Cc1c[nH]c2ccccc12)C(=O)N[C@H](CCCN=C(N)N)C(N)=O`: the Agonistic activity entry in the assay listed under Homo sapiens was “inactive”.
As to `CN[C@@H](Cc1ccccc1)C(=O)N[C@@H](CCCCN)C(=O)N1CCC[C@H]1C(=O)N[C@@H](CC(C)C)C(=O)N[C@@H](Cc1c[nH]c2ccccc12)C(=O)N[C@@H](CCCN=C(N)N)C(=O)O` (HELM PEPTIDE1{[meF].K.P.L.W.R}$$$$V2.0), the IC50 in assay [2] was above 1 mM.
`CC(=O)N[C@@H](Cc1ccccc1)C(=O)N[C@H]1CCCCNC(=O)[C@H](CCCN=C(N)N)NC(=O)[C@H](Cc2c[nH]c3ccccc23)NC(=O)[C@@H](CC2CCCCC2)NC(=O)[C@@H]2CCCN2C1=O`: in the assay listed under Homo sapiens, the Agonistic activity result is “inactive”.
The same measure, in the same setting: the entry for `CC(=O)N[C@@H](Cc1ccccc1)C(=O)N[C@H]1CCCNC(=O)[C@@H](CCCN=C(N)N)NC(=O)[C@H](Cc2c[nH]c3ccccc23)NC(=O)[C@@H](CC2CCCCC2)NC(=O)[C@@H]2CCCN2C1=O` is “inactive”; for `CN[C@@H](Cc1ccccc1)C(=O)N[C@@H](CCCCN)C(=O)N1CCC[C@H]1C(=O)N[C@H](CC1CCCCC1)C(=O)N[C@@H](Cc1c[nH]c2ccccc12)C(=O)N[C@@H](CCCN=C(N)N)C(=O)O` it is “inactive”.
